Assays:
DGAT2 [1] = experiment: Inhibitory activity on the target gene DGAT2 in non-naive Cynomolgus macaque (Example 10, liver biopsy qPCR); format: in vivo
Procedure: The in-vivo experimental designs for subcutaneous injection in non-naive Cynomolgus macaque, the administration and the sample collection method were shown in the table below.
The day of administration to non-naive Cynomolgus macaque was defined as day 1, the day before it was day 0, the day after it was day 2, and so on. Each group had 2 animals. On days 1, 4, 8, 15, 22, 29, 36, 43, 50, and 57, the animals in Groups 1 and 2 were injected with the solvent or 4 mg/kg (0.5mL/kg) of the positive reference compound. On days 1 and 29, the animals in Groups 3 to 7 were injected subcutaneously with 0.5 mL/kg of the test compound.
On day 0 (0 h) before administration by SC, and days 7, 15, 28, 57, and 99 after administration, the liver sample was collected. Collection method: The animals was fasted for 12-16 hrs before sample collection. Collection of liver biopsy tissue: The collection process would be operated and recorded according to the SOP of the research institution. The location of the liver was determined by B ultrasound scan, the right liver was mainly used, and the gallbladder and major blood vessels were avoided. The biopsy needle was inserted under the guidance of the B-ultrasound probe. Guided by the image on the B-ultrasound screen, the needle entered the liver away from the gallbladder and major blood vessels, and the materials were sampled by puncture. After biopsy, the biopsy needle was withdrawn and the samples were collected. The obtained samples were immediately immersed in PBS with RNAlater®, and allowed to stand overnight at 4°C. Then the residual liquid was sucked off, and the remainder was stored at -80°C or below until it was transported in the presence of dry ice and detected.
Trizol was homogenized by Qiagen Tissue Lyser II at 26 Hz for 2 min and lyzed at room temperature for 5 min. 1 mL of the supernatant was taken, added to 200 uL of chloroform, shaken for 15 s, allowed to stand for 3 min, and centrifuged. The supernatant was collected, added with an equal volume of isopropanol, and stood overnight at -20°C for precipitation. The precipitate was washed twice with 70%, and dissolved in water without RNase. The concentration of the RNA sample was determined by Nanodrop ONE and diluted to 200 ng/µL with water without RNase for reverse transcription.
The experimental steps of reverse transcription could be made reference to the instruction of HiScript® III RT SuperMix for qPCR (+gDNA wiper). Briefly, a gDNA removal mixture was prepared according to the table below. A mixture (11 µL/sample) of 4 x gDNA wiper Mix and RNase-Free ddH2O and 1000 ng RNA sample (5 µL RNA sample with a concentration of 200 ng/µL) were added to a 96-well PCR reaction plate, incubated at 42°C for 2 min, and cooled on ice. 4 µL 5 x HiScript III qRT SuperMix and the DNA removed product from the previous step were added to a 96-well PCR reaction plate for reverse transcription. Reaction conditions: 37°C for 15 min; and 85°C for 5 sec. The cDNA was stored at 4°C for further analysis.
The method for detecting the expression levels of DGAT2 and GAPDH genes in the liver of Cynomolgus macaque by quantitative PCR was briefly described as follows: As shown in the table below, a qPCR reaction mixture was prepared, and 2 µL of a cDNA sample diluted 2 times with RNase-free water was added for PCR reaction. Reaction conditions: 95°C for 10 min; and 40 cycles of 95°C for 15 sec, and 60°C for 1 min.
All values were normalized to the average of the group on day 0.

human DGAT2 = experiment: Non-alcoholic steatohepatitis induced by a western diet in human DGAT2 carrying mice (Example 9, liver histology scores); format: in vivo, mouse; details: for Ballooning degeneration / Fibrosis score / Grade of steatosis / Lobular inflammation / NAFLD score: B6-hDGAT2 mice, western diet
Procedure: Humanized mice with B6-hDGAT2-TG target and non-alcoholic steatohepatitis model were provided by GemPharmatech LLC. On D0, subcutaneous administration and induction and feeding with western diet were started. On D29, the second injection was performed. Effective period: 8 weeks. 4 mice in one group were sacrificed at 4-week endpoint, and 4 mice in the other group were sacrificed at 8-week endpoint.
Plasma was collected every week to detect the levels of TG, Chol, HDL-C, LDL-C, ALT, and AST, and the liver was stained with HE and NASH score were obtained at the endpoint.

DGAT2 [2] = experiment: Inhibition rate on target gene DGAT2 mRNA in primary human hepatocytes (PHHs), free uptake; format: cell-based
Procedure: The test compound was prepared into a 100 µM/200 µM mother liquor with PBS.
Human hepatocytes (PHHs). PHHs were revived and cultured in InvitroGRO CP medium (BIOIVT article number S0331) containing 10% fetal bovine serum (FBS, Gibco article number 10091148) and 1% penicillin-streptomycin (PS, HyClone article number SV30010).
PHHs (5.4 × 10^4 cells/well) were inoculated into a 96-well plate, and siRNA was added into the cell while plating. The compound entered the cells through free uptake. […] concentration points (100 nM, 20 nM, 4 nM, 0.8 nM, 0.16 nM, 0.032 nM, and 0.0064 nM) were set for siRNA test, and 2 wells were measured in parallel. At the same time, a compound-free control group containing PBS was set up. The cells were cultured in an incubator at 37°C with 5% CO2.
48 hrs later, the medium was removed and the cells were collected for RNA extraction. Total RNA was extracted by using RNeasy® 96 Kit (QIAGEN-74182) according to the instructions for use of the kit. cDNA was synthesized by using HiScript III RT SuperMix for qPCR (+gDNA wiper) (Vazyme article number R323-01) following the instructions.
The target gen cDNA was detected by qPCR, and the internal reference gene GAPDH cDNA was also detected. 8 µL of prepared PCR reaction solution and 2 µL of sample cDNA were added into a 384 well plate. […]

[3] = 3mpk subcutaneous on days 1 and 29, normalized to day 0
[4] = 10mpk subcutaneous on days 1 and 29, normalized to day 0
[5] = 3mpk, D0 and D29, 8-week endpoint
[6] = 3mpk, 4-week endpoint, mean ± SEM
[7] = 6mpk, D0 and D29, 8-week endpoint
[8] = 6mpk, 4-week endpoint, mean ± SEM

“dS319: sense (invAb)*acaccauaGfAfCfuauuugcuua[L96]; anti-sense Vpu*Af*a*GfcAfaauagUfcUfaUfgGfuGf* u” was tested, and the “Average inhibition rate, % (D28)” value (DGAT2 [1]; [3]) was 86.6%, the “Average inhibition rate, % (D56)” value (DGAT2 [1]; [3]) was 91.1% and the “Average inhibition rate, % (D99)” value (DGAT2 [1]; [3]) was 72.2%. The “Average inhibition rate, % (D28)” value (DGAT2 [1]; [4]) was 96.0%, the “Average inhibition rate, % (D56)” value (DGAT2 [1]; [4]) was 97.9% and the “Average inhibition rate, % (D99)” value (DGAT2 [1]; [4]) was 89.1%. It also gave a Ballooning degeneration (human DGAT2; [5]) of 2.0±0.0, a Fibrosis score (human DGAT2; [5]) of 0.9±0.1 and a Grade of steatosis (human DGAT2; [5]) of 1.0±0.0. It also gave a Lobular inflammation (human DGAT2; [5]) of 1.8±0.2, an NAFLD score (human DGAT2; [5]) of 4.8±0.2 and a Ballooning degeneration (human DGAT2; [6]) of 2.0±0.0. The Fibrosis score (human DGAT2; [6]) was 0.5±0.1, the Grade of steatosis (human DGAT2; [6]) was 0.7±0.1 and the Lobular inflammation (human DGAT2; [6]) was 2.2±0.1. For the same substance, the NAFLD score (human DGAT2; [6]) was 4.9±0.2, the Ballooning degeneration (human DGAT2; [7]) was 1.3±0.1 and the Fibrosis score (human DGAT2; [7]) was 0.8±0.2. For the same substance, the Grade of steatosis (human DGAT2; [7]) was 1.1±0.1, the Lobular inflammation (human DGAT2; [7]) was 2.0±0.1 and the NAFLD score (human DGAT2; [7]) was 4.3±0.0. For the same substance, the Ballooning degeneration (human DGAT2; [8]) was 1.3±0.1, the Fibrosis score (human DGAT2; [8]) was 0.4±0.1 and the Grade of steatosis (human DGAT2; [8]) was 0.5±0.2. For the same substance, the Lobular inflammation (human DGAT2; [8]) was 1.6±0.2, the NAFLD score (human DGAT2; [8]) was 3.4±0.2 and the “improvement on non-alcoholic steatohepatitis (NASH) by NAFLD activity score” value (human DGAT2; FIG. 1 legend, hDGAT2 combined with western diet, over 4 weeks) was “improvement”. For the same substance, the “improvement on fibrosis in non-alcoholic steatohepatitis” value (human DGAT2; FIG. 2 legend, hDGAT2 combined with western diet, over 4 weeks) was “improvement” and the IC50 (DGAT2 [2]) was 0.0623 nM.

— patent publication EP4722365A1, “DOUBLE-STRANDED NUCLEOTIDE COMPOUND FOR METABOLIC DISEASES AND USE THEREOF” (Visirna Therapeutics (Suzhou) Co., Ltd., priority 2023, dated 2024)
